{"source": "patent US20230390541A1", "about": "“Dermal Patch for Transdermal Modulation of Ghrelin Pathway” (Resarcion, LLC, priority 2019, published 2023)", "origin": "cited, not measured here", "details": "shortest structural analog among truncated ghrelin analogs"}
{"substance": "Ser^3(octanoyl)-ghrelin (1-5)", "values": [{"measurement": "activity relative to native ghrelin", "result": "activity similar to the native hormone"}]}
